The text below walks through data of patent US8288379B2, “Thia-triaza-cyclopentazulenes” (Boehringer Ingelheim International GmbH, priority 2009, dated 2012).

Some results are limits rather than exact numbers.

Usually IC50 stands for the midpoint of a concentration-inhibition curve. A high value points to a need for much substance.

The target in the assay is T1, FRAP1 (mTOR) kinase (Homo sapiens, UniProt P42345).
T1 construct: purchased Invitrogen PV4753
T1 sequence (P42345 1360-2549 limits assumed): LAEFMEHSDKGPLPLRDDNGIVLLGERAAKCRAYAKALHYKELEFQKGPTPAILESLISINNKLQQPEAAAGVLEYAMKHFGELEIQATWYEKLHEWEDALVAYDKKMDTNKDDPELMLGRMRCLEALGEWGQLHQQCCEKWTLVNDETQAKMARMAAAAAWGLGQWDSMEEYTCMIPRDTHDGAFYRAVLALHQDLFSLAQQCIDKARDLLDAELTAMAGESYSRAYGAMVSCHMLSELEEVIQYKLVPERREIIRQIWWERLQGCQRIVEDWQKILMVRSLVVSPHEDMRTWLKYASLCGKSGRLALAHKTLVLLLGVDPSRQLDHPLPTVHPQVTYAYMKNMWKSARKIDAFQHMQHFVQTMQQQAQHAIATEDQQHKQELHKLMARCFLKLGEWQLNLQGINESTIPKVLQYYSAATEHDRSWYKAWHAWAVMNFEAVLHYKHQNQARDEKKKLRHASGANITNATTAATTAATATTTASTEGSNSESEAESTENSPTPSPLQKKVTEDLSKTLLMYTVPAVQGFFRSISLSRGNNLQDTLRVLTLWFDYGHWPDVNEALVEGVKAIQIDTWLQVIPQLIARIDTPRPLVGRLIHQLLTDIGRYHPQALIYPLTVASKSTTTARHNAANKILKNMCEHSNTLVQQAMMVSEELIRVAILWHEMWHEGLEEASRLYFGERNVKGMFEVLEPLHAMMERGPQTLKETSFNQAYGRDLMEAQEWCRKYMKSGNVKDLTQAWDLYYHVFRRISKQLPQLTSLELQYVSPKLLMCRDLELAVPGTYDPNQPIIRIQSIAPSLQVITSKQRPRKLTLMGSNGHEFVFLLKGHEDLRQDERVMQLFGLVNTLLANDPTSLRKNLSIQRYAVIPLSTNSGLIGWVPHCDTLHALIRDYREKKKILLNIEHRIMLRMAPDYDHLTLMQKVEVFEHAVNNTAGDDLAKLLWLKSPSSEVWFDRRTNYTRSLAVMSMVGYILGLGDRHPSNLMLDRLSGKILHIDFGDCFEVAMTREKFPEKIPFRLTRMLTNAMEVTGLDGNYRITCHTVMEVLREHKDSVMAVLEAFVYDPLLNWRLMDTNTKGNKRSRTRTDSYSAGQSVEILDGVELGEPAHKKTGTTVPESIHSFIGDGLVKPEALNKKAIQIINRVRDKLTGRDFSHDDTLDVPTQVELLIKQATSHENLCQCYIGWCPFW
Description: Inhibition of mTOR-induced p-4E-BP1 phosphorylation (TR-FRET mTOR Activity Kit; Invitrogen). Format: biochemical. Conditions: 400 nM GFP-4E-BP1 substrate, ~150 ng/mL mTOR, one hour at room temperature. The source says:
Inhibition of mTOR-Induced p-4E-BP1 Phosphorylation (TR-FRET mTOR Activity Kit; Invitrogen)
• GFP-4E-BP1 substrate; Invitrogen order no. PV4759 • Lanthascreen Tb-anti-p4E-BP1 (pThr46) Antibody Kit; Invitrogen order no. PV4758 • FRAP1 (mTOR) kinase; Invitrogen order no. […] Preparation of Reagents: Note: Thaw and keep mTOR, the substrate, ATP, and the antibody on ice prior to making working dilutions. Working dilutions of these components can be kept at room temperature for short periods of time the day of use. 1. Add 2 ml of 5× Assay Buffer to 8 ml water to prepare 10 ml of 1× Assay Buffer. Note: The concentration of 1× Assay Buffer is 50 mM HEPES pH 7.5, 0.01% Polysorbate 20, 1 mM EGTA, and 10 mM MnCl2. 2. Prepare Antibody/EDTA Solution by first adding 2.75 n1 of Tb-anti p4E-BP1 Antibody to 2397 n1 of LanthaScreen™ TR-FRET Dilution Buffer. Then, add 100 n1 of 0.5 M EDTA. 3. Prepare 4× Substrate/Enzyme Solution by first adding 72 n1 of GFP-4E-BP1 (22 nM) to 926 n1 of 1× Assay Buffer. Then, add 1.6 n1 of mTOR (0.45 mg/mL). 4. Prepare ATP Solution by adding 3.2 n1 of 10 mM ATP to 1997 n1 of 1× Assay Buffer. Serial Dilution of Inhibitors (16 Point Curve): Note: It is recommended that inhibitors be serially diluted in DMSO, then diluted to a 4× working concentration with 1× Assay Buffer. The below procedure describes dilution of compounds in a 96-well format prior to transfer to a 384-well format for kinase assays. This procedure calls for dilution of the compounds in 2 adjacent columns of a 96-well plate, which upon transfer to a single column of a 384-well plate with an 8-channel pipette will align the samples in order of concentration. 1. Dispense 40 n1 of DMSO to two adjacent columns of a 96 well plate per compound (e.g. columns 1 and 2). 2. Add 10 n1 of inhibitor stock (10 mM) to the first well of the first column (A1) and mix. 3. Remove 10 n1 from A1 and transfer to the adjacent well in the next column (B1) and mix. 4. Remove 10 n1 from B1 and transfer to the next well in the first column (B2) and mix. 5. Repeat this dilution pattern through well H1 and leave the last well (H2) as DMSO only. 6. Remove 4 n1 of diluted compounds and add to 96 n1 of 1× Assay Buffer in a 96-well plate making 4× compound dilutions. Kinase Reaction: 1. Add 2.5 μl of 4× compound dilutions from the first column of the 96-well plate to every other well of column 1 of a 384-well plate with an 8-channel pipette. Repeat for columns 2 and 3. 2. Add 2.5 n1 of 4× compound dilutions from the second column of the 96-well plate to the empty wells of column 1 of the 384-well plate with an 8-channel pipette. Repeat for columns 2 and 3. Note: This procedure aligns the compound dilutions in order of concentration. 3. Add 2.5 n1 of 4× Enzyme/Substrate Solution to all columns 1-6. 4. Preincubate for 30 min. at RT (shaker). 5. Add 5 n1 of ATP Solution to all wells to start reactions. 6. Shake the assay plate on a plate shaker for 30 seconds. 7. Incubate the assay plate for one hour at room temperature (20-25° C.). Stop Step and Fluorescence Detection: 1. Add 10 n1 of Antibody/EDTA Solution to each well in columns 1-9. 2. Shake the assay plate on a plate shaker for 30 seconds. 3. Incubate the assay plate for one hour at room temperature (20-25° C.). 4. Measure the GFP (FRET) and terbium (reference) emission signals on a fluorescence plate reader (e.g. Perkin Elmer Envision). Data Analysis: 1. Calculate the emission ratio for each sample by dividing the GFP (FRET) signal by the terbium (reference) signal. 2. Plot the concentration of each compound versus the emission ratio. Determine the concentration of compound required to reach 50% of the maximum signal (IC50). Determination of IC50 values can be obtained by curve fitting (sigmoidal dose response, variable slope) using Prism software from GraphPad). Inhibition of Proliferation: CyQuant PC-3 Description: […]
As for `CCc1ccccc1-n1nc(-c2ccc(NC)nc2)c2c1-c1sc(NC(C)=O)nc1CCC2` [Example B-88, N-[1-(2-Ethyl-phenyl)-3-(6-methylamino-pyridin-3-yl)-1,4,5,6-tetrahydro-9-thia-1,2,7-triaza-cyclopenta[e]azulen-8-yl]-acetamide], it took 269 nM to reach half-maximal inhibition (IC50). This lies in the sub-micromolar range. As for `Cc1ccccc1-n1nc(-c2ccc(N)nc2)c2c1-c1sc(NC(=O)CN)nc1CCC2` [Example B-102], the IC50 was found to be 32 nM. `CCNc1ccc(-c2nn(-c3ccccc3Br)c3c2CCCc2nc(NC(C)=O)sc2-3)cn1` [Example B-74] registered an IC50 of 168 nM. This IC50 lies about 5.2-fold higher than the previous one. Take `CNC(=O)Nc1nc2c(s1)-c1c(c(-c3ccc(NC)nc3)nn1-c1ccccc1C)CCC2` [Example B-142, 1-Methyl-3-[3-(6-methylamino-pyridin-3-yl)-1-o-tolyl-1,4,5,6-tetrahydro-9-thia-1,2,7-triaza-cyclopent[e]azulen-8-yl]-urea]: half-maximal inhibition (IC50) required 92 nM. As to `CC(=O)Nc1nc2c(s1)-c1c(c(C(=O)Nc3ccccc3)nn1C(C)C)CCC2` [Example E-09], half-maximal inhibition (IC50) was put at 8450 nM.

With `CC(=O)Nc1nc2c(s1)-c1c(c(-c3ccc(N)nc3)nn1CCN1CCOCC1)CCC2` [Example B-105], the IC50 was found to be 1380 nM. Compound `CN(C)C(=O)Nc1nc2c(s1)-c1c(c(-c3ccc(N)nc3)nn1-c1ccccc1F)CCC2` [Example B-97] came in with an IC50 of 175 nM. Against the preceding compound, the IC50 is about 7.9-fold lower. Then `COCC(=O)Nc1nc2c(s1)-c1c(c(-c3ccc(N)nc3)nn1-c1ccccc1C)CCC2` [Example B-104, N-[3-(6-Amino-pyridin-3-yl)-1-o-tolyl-1,4,5,6-tetrahydro-9-thia-1,2,7-triaza-cyclopenta[e]azulen-8-yl]-2-methoxy-acetamide], with 72 nM; and `CNc1ccc(-c2nn(CCN3CCOCC3)c3c2CCCc2nc(NC(=O)N(C)C)sc2-3)cn1` [Example B-98], with 737 nM. As for `CNC(=O)Nc1nc2c(s1)-c1c(c(-c3ccc(NC)nc3)nn1C(C)C)CCC2` [Example B-144, 1-[1-Isopropyl-3-(6-methylamino-pyridin-3-yl)-1,4,5,6-tetrahydro-9-thia-1,2,7-triaza-cyclopent[e]azulen-8-yl]-3-methyl-urea], the IC50 was 113 nM. In turn, `CCNc1ccc(-c2nn(-c3ccccc3C)c3c2CCCc2nc(N)sc2-3)cn1` [Example C-03] displayed an IC50 of 3340 nM. This IC50 lies about 30-fold higher than the previous one. The compound `CNc1ccc(-c2nn(-c3ccccc3C)c3c2CCCc2nc(NC(=O)COC)sc2-3)cn1` [Example B-107, 2-Methoxy-N-[3-(6-methylamino-pyridin-3-yl)-1-o-tolyl-1,4,5,6-tetrahydro-9-thia-1,2,7-triaza-cyclopenta[e]azulen-8-yl]-acetamide] showed an IC50 of 427 nM. Turning to `Cn1ncc2c1-c1sc(-c3cccnc3)nc1CCC2` [Example G-02], the IC50 is at least 20000 nM. In the case of `COCC(=O)Nc1nc2c(s1)-c1c(c(-c3ccc(C)nc3)nn1-c1ccccc1C)CCC2` [Example E-13], half-maximal inhibition (IC50) was put at 524 nM. Then `COCCN(C)C(=O)c1nn(C(C)C)c2c1CCCc1nc(NC(C)=O)sc1-2` [Example E-08], with at least 20000 nM; and `CCNc1ccc(-c2nn(C(C)COC)c3c2CCCc2nc(NC(C)=O)sc2-3)cn1` (stereo not shown) [Example B-126], with 84 nM. For the compound `CC(=O)Nc1nc2c(s1)-c1c(c(-c3cncn3C)nn1-c1ccccc1)CCC2` [Example B-94], the IC50 came out at 8360 nM.

`CC(=O)Nc1nc2c(s1)-c1c(c(C(=O)Nc3cc[nH]n3)nn1C(C)C)CCC2` [Example E-10] had a concentration for half-maximal inhibition (IC50) of 1580 nM. For `CC(=O)Nc1nc2c(s1)-c1c(c(C(=O)N(C)CCN(C)C)nn1C(C)C)CCC2` [Example E-03], the IC50 worked out at 4850 nM. Then `CC(=O)Nc1nc2c(s1)-c1c(c(-c3c[nH]cn3)nn1CCN(C)C)CCC2` [Example B-110], with 840 nM; and `CC(=O)Nc1nc2c(s1)-c1c(c(C(=O)NCCCO)nn1C(C)C)CCC2` [Example E-06], with 18000 nM; and `CNC(=O)c1nn(C(C)C)c2c1CCCc1nc(NC(C)=O)sc1-2` [Example E-01], with 5180 nM. As for `CC(=O)Nc1nc2c(s1)-c1c(c(C(=O)N(C)C)nn1C(C)C)CCC2` [Example E-02], the IC50 worked out at 16000 nM.

For the compound `COCCNC(=O)c1nn(C(C)C)c2c1CCCc1nc(NC(C)=O)sc1-2` [Example E-07], the IC50 turned out to be 11400 nM. In turn, `Cc1ccc(-c2nn(-c3ccccc3C)c3c2CCCc2nc(NC(=O)NCCN(C)C)sc2-3)cn1` [Example D-07] returned an IC50 of 1280 nM. This IC50 is about 8.9-fold lower than that of the compound before.

Regarding `COCCC(=O)Nc1nc2c(s1)-c1c(c(-c3ccc(C)nc3)nn1-c1ccccc1C)CCC2` [Example E-14], the IC50 came to 698 nM. With `CNC(=O)Nc1nc2c(s1)-c1c(c(-c3ccc(C)nc3)nn1-c1ccccc1C)CCC2` [Example D-05], the IC50 worked out at 358 nM. Against the preceding compound, the IC50 is about 1.9-fold lower. Regarding `CC(=O)Nc1nc2c(s1)-c1c(c(C(=O)N(C)CCO)nn1C(C)C)CCC2` [Example E-05], the concentration for half-maximal inhibition (IC50) was at least 20000 nM.

With `CCOC(=O)CCCNC(=O)c1nn(C(C)C)c2c1CCCc1nc(NC(C)=O)sc1-2` [Example E-12], the 50% inhibitory concentration (IC50) is 5410 nM. That is a single-digit micromolar value.

`CCNc1ccc(-c2nn(-c3ccccc3C)c3c2CCCc2nc(NC(=O)COC)sc2-3)cn1` [Example B-100, N-[3-(6-Ethylamino-pyridin-3-yl)-1-o-tolyl-1,4,5,6-tetrahydro-9-thia-1,2,7-triaza-cyclopenta[e]azulen-8-yl]-2-methoxy-acetamide]: inhibition was half-maximal at 286 nM (IC50).

In turn, `CNc1ccc(-c2nn(-c3cccnc3)c3c2CCCc2nc(NC(C)=O)sc2-3)cn1` [Example B-84] registered an IC50 of 50 nM. `CC(=O)Nc1nc2c(s1)-c1c(c(-c3c[nH]c(C)n3)nn1CCN(C)C)CCC2` [Example B-119]: the IC50 is 1880 nM.

Take `COC(=O)CCNC(=O)c1nn(C(C)C)c2c1CCCc1nc(NC(C)=O)sc1-2` [Example E-11]: the IC50 was found to be 6260 nM. `CC(=O)Nc1nc2c(s1)-c1c(c(C(=O)NCCO)nn1C(C)C)CCC2` [Example E-04] yielded an IC50 of 4890 nM. Consider `CC(=O)Nc1nc2c(s1)-c1c(c(-c3cncn3C)nn1-c1ccccc1C)CCC2` [Example B-93], for which half-maximal inhibition (IC50) was put at 1110 nM. In the case of `CCNc1ccc(-c2nn(-c3ccncc3C)c3c2CCCc2nc(N)sc2-3)cn1` [Example C-07], the IC50 was found to be 2190 nM. Then `Cc1ccc(-c2nn(-c3ccccc3C)c3c2CCCc2nc(NC(N)=O)sc2-3)cn1` [Example D-04], with 402 nM; and `CCNc1ccc(-c2nn(C(C)C)c3c2CCCc2nc(NC(=O)NC)sc2-3)cn1` [Example B-140], with 182 nM; and `CC(=O)Nc1nc2c(s1)-c1c(c(-c3ccc(C)nc3)nn1-c1cccnc1)CCC2` [Example B-95], with 74 nM. Then `COCCNC(=O)Nc1nc2c(s1)-c1c(c(-c3ccc(C)nc3)nn1-c1ccccc1C)CCC2` [Example D-06], with 1600 nM. `CCNc1ccc(-c2nn(CCN3CCOCC3)c3c2CCCc2nc(NC(C)=O)sc2-3)cn1` [Example B-124] displayed an IC50 of 994 nM.

Consider `CCNc1ccc(-c2nn(C(C)(C)C)c3c2CCCc2nc(NC(C)=O)sc2-3)cn1` [Example B-123], for which the 50% inhibitory concentration (IC50) was found to be 1140 nM. As to `CCNc1ccc(-c2nn(-c3cccnc3C)c3c2CCCc2nc(NC(=O)N(C)C)sc2-3)cn1` [Example B-141], the IC50 amounted to 512 nM.
